The target in test [1] is T1, human BACE1 (rhBACE1) (Homo sapiens, UniProt P56817). The experiment in a line: BACE1 fluorescence polarization (FP) competition binding assay with 5-TAMRA-BACE020 probe. The following applies: for IC50: competition with 3 nM 5-TAMRA-BACE020, 12 nM rhBACE1, pH 4.4. On the procedure:
BACE1 Fluorescence Polarization Competition Binding Assay.
BACE1 binding assays were carried out in a final volume of 10 μL per well in black 384-well microplates (Proxiplate-Plus; Perkin Elmer, Waltham, Mass.). A standard binding reaction, initiated by the addition of 5 μL 2× enzyme to 2.5 μL of 4× binding probe and […] of 4× inhibitor, contained 12 nM rhBACE1, 3 nM 5-TAMRA-[…] (SEQ ID NO: 16) (5-TAMRA-BACE020), 50 mM NaOAc, pH 4.4 with 0.1% CHAPS. The reaction was permitted to proceed towards equilibrium for 2 h at ambient temperature prior to fluorescence polarization measurement using Envision (Perkin Elmer). The parallel and perpendicular fluorescent emissions measured in each well at 595 nm (excitation 531 nm polarized light) were used to determine the milli-polarization level (mP) using the following formula: mP=1000*(S-G*P)/(S+G*P) where S=parallel emission, P=perpendicular emission and G=0.65. The mP value in each well was plotted as a function of inhibitor concentration and the 50% inhibition (IC50) values were determined using a nonlinear least squares fit of the data to a four parameter equation using Prism 5.0 software (GraphPad Software, San Diego, Calif.). 5-TAMRA-labeled BACE020 was purchased from American Peptide Company, Inc (Sunnyvale, Calif.) and solubilized in DMSO to 100 mM for storage.
The affinities of BACE1 peptide ligands were measured using the abovementioned competition binding FP assay for determining IC50 values with serially diluted peptides. A Caliper assay was used to measure the inhibition of BACE1 enzymatic activity by peptide ligands. […] Furthermore, the IC50 values measured by the Caliper assay for peptides BACE017-021 and BACE025-028 are consistent with those measured by the HTRF assay.
A general note: Fluorescence polarisation rises when a labelled molecule tumbles more slowly, as on binding a larger partner.
Target sequence in this assay (P56817 46-501): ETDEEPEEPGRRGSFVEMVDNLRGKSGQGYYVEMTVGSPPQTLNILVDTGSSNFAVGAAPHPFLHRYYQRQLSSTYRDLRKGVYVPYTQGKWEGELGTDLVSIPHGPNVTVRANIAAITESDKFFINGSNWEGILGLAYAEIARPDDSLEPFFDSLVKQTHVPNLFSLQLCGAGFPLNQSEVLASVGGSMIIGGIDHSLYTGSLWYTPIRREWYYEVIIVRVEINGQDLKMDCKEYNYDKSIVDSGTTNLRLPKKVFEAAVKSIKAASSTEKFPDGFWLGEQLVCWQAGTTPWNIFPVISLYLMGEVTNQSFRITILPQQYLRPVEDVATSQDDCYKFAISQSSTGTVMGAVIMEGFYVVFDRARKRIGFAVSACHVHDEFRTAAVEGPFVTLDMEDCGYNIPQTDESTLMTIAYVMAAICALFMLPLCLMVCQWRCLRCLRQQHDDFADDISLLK

Test [2] deals with T1, human BACE1 (rhBACE1). The experiment in a line: Caliper BACE1 activity assay (microfluidic capillary electrophoresis). It is filed as biochemical. More on the design: containing human BACE1 (extracellular domain). The following applies: for IC50: 12 nM rhBACE1, 1 μM FAM-substrate, pH 4.4. As to the method:
An MCE assay reactions can be carried out in a standard enzymatic reaction, initiated by the addition of substrate to enzyme and 4× compound, containing human BACE1 (extracellular domain), amyloid precursor protein beta secretase active site peptide (FAM-[…]-CONH2 (SEQ ID NO: 20)), 50 mM NaOAc pH 4.4 and 0.1% CHAPS. After incubation for 60 minutes at ambient temperature, the product and substrate in each reaction is separated using a 12-sipper microfluidic chip analyzed on an LC3000® (both, Caliper Life Sciences). The separation of product and substrate is optimized by choosing voltages and pressure using the manufacturer's optimization software. Substrate conversion is calculated from the electrophoregram using HTS Well Analyzer software (Caliper Life Sciences).
BACE1, BACE2 and Cathepsin D Activity Assay Using Microfluidic Capillary Electrophoresis (MCE).
BACE1, BACE2, and Cathepsin D reactions were carried out in a final volume of 20 μl per well in a 384-well microplate using a Caliper LabChip 3000 (Hopkinton, Mass.). A standard enzymatic reaction, initiated by the addition of 10 μ12× substrate to 5 μl of 4× enzyme and 5 μl of 4× peptide or small molecule inhibitor, contained 12 nM rhBACE1, 1 μM FAM-[…]-amide (SEQ ID NO: 20), 50 mM NaOAc, pH 4.4, 0.1% CHAPS. The same reaction conditions were used for rhBACE2 (5 nM) and Cathepsin D (6 nM) (Cat. No. 219394; EMD Biosciences, San Diego, Calif.). After incubation for 60 min at room temperature, the product and substrate in each reaction were separated using a 12-sipper microfluidic chip. Separation of product and substrate was optimized by choosing voltages and pressure using the Caliper Optimizer software. The separation buffer contained 100 mM HEPES, pH 7.2, 0.015% Brij-35, 0.1% Coating Reagent #3, 10 mM EDTA and 5% DMSO. The separation conditions used a downstream voltage of −500 V, an upstream voltage of −2250 V, and a screening pressure of −1.2 psi. The product and substrate fluorescence was excited at 488 nm and detected at 530 nm. Substrate conversion was calculated from the electrophoregram using the Caliper HTS Well Analyzer software.
Target sequence in this assay (P56817 46-457 limits assumed): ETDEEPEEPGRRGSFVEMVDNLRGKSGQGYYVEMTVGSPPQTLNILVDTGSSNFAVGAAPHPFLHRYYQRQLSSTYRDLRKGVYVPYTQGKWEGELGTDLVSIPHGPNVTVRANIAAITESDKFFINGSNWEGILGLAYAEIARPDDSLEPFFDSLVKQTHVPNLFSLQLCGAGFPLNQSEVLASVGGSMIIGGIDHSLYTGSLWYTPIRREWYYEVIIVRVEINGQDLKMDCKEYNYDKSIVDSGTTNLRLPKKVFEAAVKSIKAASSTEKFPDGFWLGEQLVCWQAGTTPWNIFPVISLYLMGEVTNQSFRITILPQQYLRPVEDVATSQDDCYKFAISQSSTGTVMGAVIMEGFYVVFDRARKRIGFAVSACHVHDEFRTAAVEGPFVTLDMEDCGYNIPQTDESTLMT

Positions of bridges follow the written chain, without caps; N, C: chain ends. Residues, ends and D or L forms follow the SMILES beside them.

With `CC[C@H](C)[C@@H]1NC(=O)CNC(=O)[C@H](CC(C)C)NC(=O)[C@H](CC(C)C)NC(=O)[C@H](CCCNC(=N)N)NC(=O)[C@@H](NC(=O)[C@H](Cc2ccc(O)cc2)NC(=O)[C@H](CCSC)NC(=O)[C@H](CO)NC(=O)[C@H](CCC(=O)O)NC(=O)[C@H](CCC(=O)O)NC(C)=O)CSSC[C@@H](C(=O)NCC(N)=O)NC(=O)CNC1=O` [BACE029] (Ac-EESMYCRLLGIGCG-NH2; disulfide 6-13), the half-maximal inhibitory concentration (IC50) – broadly, the concentration needed to halve the response being measured – on human BACE1 (rhBACE1) [1] stood at 12 nM; at human BACE1 (rhBACE1) [2], 13 ± 8 nM.
Consider `CC[C@H](C)[C@@H]1NC(=O)CNC(=O)[C@H](CC(C)C)NC(=O)[C@H](CC(C)C)NC(=O)[C@H](CCCNC(=N)N)NC(=O)[C@@H](NC(=O)[C@H](Cc2ccc(O)cc2)NC(=O)[C@H](CCSC)NC(=O)[C@H](CO)NC(C)=O)CSSC[C@@H](C(=O)NCC(N)=O)NC(=O)CNC1=O` [BACE031] (Ac-SMYCRLLGIGCG-NH2; disulfide 4-11), for which the “weakening of affinity relative to BACE020” value at human BACE1 (rhBACE1) [1] (FP binding assay) is 3-4 fold. The “weakening of inhibitory activity relative to BACE020” value on human BACE1 (rhBACE1) [2] (Caliper activity assay) was 3-4 fold.
For `CC[C@H](C)[C@@H]1NC(=O)CNC(=O)[C@H](CC(C)C)NC(=O)[C@H](CC(C)C)NC(=O)[C@H](CCCNC(=N)N)NC(=O)[C@@H](NC(=O)[C@H](Cc2ccc(O)cc2)NC(=O)[C@H](CCSC)NC(C)=O)CSSC[C@@H](C(=O)NCC(N)=O)NC(=O)CNC1=O` [BACE032] (Ac-MYCRLLGIGCG-NH2; disulfide 3-10), the half-inhibitory concentration (IC50) on human BACE1 (rhBACE1) [1] was > 10000 nM.
On to `CC[C@H](C)[C@@H]1NC(=O)CNC(=O)[C@H](CC(C)C)NC(=O)[C@H](CC(C)C)NC(=O)[C@H](CCCNC(=N)N)NC(=O)[C@@H](NC(=O)[C@H](Cc2ccc(O)cc2)NC(C)=O)CSSC[C@@H](C(=O)NCC(N)=O)NC(=O)CNC1=O` [BACE033] (Ac-YCRLLGIGCG-NH2; disulfide 2-9), for which, at human BACE1 (rhBACE1) [1], the IC50 is > 10000 nM.
The same measure, in the same setting: the value for `CC[C@H](C)[C@@H]1NC(=O)CNC(=O)[C@H](CC(C)C)NC(=O)[C@H](CC(C)C)NC(=O)[C@H](CCCNC(=N)N)NC(=O)[C@@H](NC(C)=O)CSSC[C@@H](C(=O)NCC(N)=O)NC(=O)CNC1=O` [BACE034] (Ac-CRLLGIGCG-NH2; disulfide 1-8) was > 10000 nM.
`CC[C@H](C)[C@@H]1NC(=O)CNC(=O)[C@H](CC(C)C)NC(=O)[C@H](CC(C)C)NC(=O)[C@H](CCCNC(=N)N)NC(=O)[C@@H](NC(=O)[C@H](Cc2ccc(O)cc2)NC(=O)[C@H](CCSC)NC(=O)[C@H](CO)NC(=O)[C@H](CCC(=O)O)NC(=O)[C@H](CCC(=O)O)NC(=O)[C@H](C)NC(C)=O)CSSC[C@@H](C(=O)NCC(N)=O)NC(=O)CNC1=O` [BACE042] (Ac-AEESMYCRLLGIGCG-NH2; disulfide 7-14): the concentration for half-maximal inhibition (IC50) on human BACE1 (rhBACE1) [2] is 12 ± 8 nM.
Consider `CC[C@H](C)[C@@H]1NC(=O)CNC(=O)[C@H](CC(C)C)NC(=O)[C@H](CC(C)C)NC(=O)[C@H](CCCNC(=N)N)NC(=O)[C@@H](NC(=O)[C@H](Cc2ccc(O)cc2)NC(=O)[C@H](CCSC)NC(=O)[C@H](CO)NC(=O)[C@H](CCC(=O)O)NC(=O)[C@H](C)NC(=O)[C@H](CC(N)=O)NC(C)=O)CSSC[C@@H](C(=O)NCC(N)=O)NC(=O)CNC1=O` [BACE043] (Ac-NAESMYCRLLGIGCG-NH2; disulfide 7-14), for which the IC50 against human BACE1 (rhBACE1) [2] was determined as 13 ± 2 nM.
`CC[C@H](C)[C@@H]1NC(=O)CNC(=O)[C@H](CC(C)C)NC(=O)[C@H](CC(C)C)NC(=O)[C@H](C)NC(=O)[C@@H](NC(=O)[C@H](Cc2ccc(O)cc2)NC(=O)[C@H](CCSC)NC(=O)[C@H](CO)NC(=O)[C@H](CCC(=O)O)NC(=O)[C@H](CCC(=O)O)NC(=O)[C@H](CC(N)=O)NC(C)=O)CSSC[C@@H](C(=O)NCC(N)=O)NC(=O)CNC1=O` [BACE048] (Ac-NEESMYCALLGIGCG-NH2; disulfide 7-14): the IC50 on human BACE1 (rhBACE1) [1] and against human BACE1 (rhBACE1) [2] was > 10000 nM each time.
Turning to `CC[C@H](C)[C@@H]1NC(=O)[C@H](C)NC(=O)[C@H](CC(C)C)NC(=O)[C@H](CC(C)C)NC(=O)[C@H](CCCNC(=N)N)NC(=O)[C@@H](NC(=O)[C@H](Cc2ccc(O)cc2)NC(=O)[C@H](CCSC)NC(=O)[C@H](CO)NC(=O)[C@H](CCC(=O)O)NC(=O)[C@H](CCC(=O)O)NC(=O)[C@H](CC(N)=O)NC(C)=O)CSSC[C@@H](C(=O)NCC(N)=O)NC(=O)CNC1=O` [BACE051] (Ac-NEESMYCRLLAIGCG-NH2; disulfide 7-14), the half-inhibitory concentration (IC50) against human BACE1 (rhBACE1) [2] is 18 ± 5 nM.
On the same count and under the same terms, the value for `CC[C@H](C)[C@@H]1NC(=O)CNC(=O)[C@H](CC(C)C)NC(=O)[C@H](CC(C)C)NC(=O)[C@H](CCCNC(=N)N)NC(=O)[C@@H](NC(=O)[C@H](Cc2ccc(O)cc2)NC(=O)[C@H](CCSC)NC(=O)[C@H](CO)NC(=O)[C@H](CCC(=O)O)NC(=O)[C@H](CCC(=O)O)NC(=O)[C@H](CC(N)=O)NC(C)=O)CSSC[C@@H](C(=O)NCC(N)=O)NC(=O)[C@H](C)NC1=O` [BACE053] (Ac-NEESMYCRLLGIACG-NH2; disulfide 7-14) was 7 nM.
As to `CC[C@H](C)[C@@H]1NC(=O)CNC(=O)[C@H](CC(C)C)NC(=O)[C@H](CC(C)C)NC(=O)[C@H](CCCNC(=N)N)NC(=O)[C@@H](NC(=O)[C@H](Cc2ccc(O)cc2)NC(=O)[C@H](CCSC)NC(=O)[C@H](CO)NC(=O)[C@H](CCC(=O)O)NC(=O)[C@H](CCC(=O)O)NC(=O)[C@H](CC(N)=O)NC(C)=O)CSSC[C@@H](C(=O)N[C@@H](C)C(N)=O)NC(=O)CNC1=O` [BACE054] (Ac-NEESMYCRLLGIGCA-NH2; disulfide 7-14), the results for the half-inhibitory concentration (IC50) on human BACE1 (rhBACE1) [1] and at human BACE1 (rhBACE1) [2] were 12 ± 3 nM and 7 ± 4 nM, respectively.
Regarding `CC[C@H](C)[C@@H]1NC(=O)CNC(=O)[C@H](CC(C)C)NC(=O)[C@H](CC(C)C)NC(=O)[C@H](CCCNC(=N)N)NC(=O)[C@@H](NC(=O)[C@H](Cc2ccccc2)NC(=O)[C@H](CCSC)NC(=O)[C@H](CO)NC(=O)[C@H](CCC(=O)O)NC(=O)[C@H](CCC(=O)O)NC(=O)[C@H](CC(N)=O)NC(C)=O)CSSC[C@@H](C(=O)NCC(N)=O)NC(=O)CNC1=O` [BACE055] (Ac-NEESMFCRLLGIGCG-NH2; disulfide 7-14), on human BACE1 (rhBACE1) [2], the IC50 was 11 ± 2 nM.
Still for that read-out and setting: the value for `CC[C@H](C)[C@@H]1NC(=O)CNC(=O)[C@H](CC(C)C)NC(=O)[C@H](CC(C)C)NC(=O)[C@H](CCCNC(=N)N)NC(=O)[C@@H](NC(=O)[C@H](Cc2ccc(O)cc2)NC(=O)[C@H](CCSC)NC(=O)[C@H](Cc2c[nH]cn2)NC(=O)[C@H](CCC(=O)O)NC(=O)[C@H](CCC(=O)O)NC(=O)[C@H](CC(N)=O)NC(C)=O)CSSC[C@@H](C(=O)NCC(N)=O)NC(=O)CNC1=O` [BACE056] (Ac-NEEHMYCRLLGIGCG-NH2; disulfide 7-14) was 3570 ± 3650 nM.
With `CC[C@H](C)[C@@H]1NC(=O)CNC(=O)[C@H](CC(C)C)NC(=O)[C@H](CC(C)C)NC(=O)[C@H](C)NC(=O)[C@@H](NC(=O)[C@H](Cc2ccc(O)cc2)NC(=O)[C@H](CCSC)NC(=O)[C@H](CO)NC(=O)[C@H](CCC(=O)O)NC(C)=O)CSSC[C@@H](C(=O)NCC(N)=O)NC(=O)CNC1=O` [BACE057] (Ac-ESMYCALLGIGCG-NH2; disulfide 5-12), the 50% inhibitory concentration (IC50) at human BACE1 (rhBACE1) [1] and against human BACE1 (rhBACE1) [2] was > 10000 nM each time.
Regarding `CC[C@H](C)[C@H](NC(=O)[C@H](Cc1ccccc1)NC(=O)[C@H](Cc1ccc(O)cc1)NC(=O)[C@@H]1CCCN1C(=O)[C@H](Cc1ccc(O)cc1)NC(C)=O)C(=O)N1CCC[C@H]1C(=O)N[C@@H](CC(C)C)C(N)=O` [BMS4, reference compound], the IC50 at human BACE1 (rhBACE1) [1] is > 10000 nM.
With Ac-KEESIYSRLMGLGSG-NH2 [BACE025], the IC50 on human BACE1 (rhBACE1) [1] and at human BACE1 (rhBACE1) [2] was ≥ 10000 nM each time.
With Ac-PEESLYSRLLALGSG-NH2 [BACE028], the IC50 on human BACE1 (rhBACE1) [1] and on human BACE1 (rhBACE1) [2] was > 10000 nM throughout.

Values taken from patent publication US9624269B2, “Peptide inhibitors of BACE1” (GENENTECH, INC., priority 2011, dated 2017).
